In patent publication EP4741392A1, “1H-PYRAZOLO[4,3-C]PYRIDINE COMPOUND, AND COMPOSITION THEREOF AND USE THEREOF” (Shenzhen TargetRx Co., Ltd., priority 2023, dated 2025):

Assays:
Format in all cases: cell-based
[1] = system: Ba/F3-ETV6-BTK-T474I cells; test: Viability assay of Ba/F3-ETV6-BTK-T474I cells (CTG); conditions: Mus musculus, BaF3, cell viability, 72 hours
Description: The in vitro antiproliferative activity of the compounds of the present disclosure against Ba/F3-ETV6-BTK-T474I cells was assayed using CTG luminescent cell viability assay. The specific assay methods were as follows: • a) Ba/F3-ETV6-BTK-T474I cells were cultured at 37 °C and 5% CO2 in complete medium [RPMI 1640 (supplier Gibco, product number 22400-089) + 10% FBS (supplier Gibco, product number 10091-148)]. • b) Cells in the logarithmic growth phase were harvested, and cell counting was performed using a […]. Trypan blue exclusion test was used to determine the cell viability, ensuring that the cell viability was above 90%. • c) Cell density was adjusted using complete culture medium. Then, the cells were inoculated at 90 µL, a total of 3000 cells per well in a 96-well cell culture plate (supplier: Shanghai Jing An Biotechnology Co., Ltd., product number J09601). • d) The cells in the 96-well plate were cultured at 37 °C and 5% CO2. • e) A 10-fold drug solution was prepared, and then 10 µL of each serially diluted compound was transferred to the corresponding assay wells of the 96-well cell plate so that the final assay concentration was 1000 nM, with 9 concentrations, 3.16-fold dilutions, and triplicates for each drug concentration. • f) The cells in the 96-well plate with the drug added were cultured at 37 °C and 5% CO2 for another 72 hours. Then, CTG analysis was performed. • g) The CTG reagent was melted, and the cell plate was equilibrated at room temperature for 30 minutes. • h) An equal volume of CTG solution was added to each well. • i) The plate was shaken on an orbital shaker for 5 minutes to lyse the cells. • j) The cell plate was placed at room temperature for 20 minutes to stabilize the luminescent signal. • k) The luminescent signal values were read and the data were collected.
The data were analyzed using GraphPad Prism 7.0 software. Nonlinear S-curve regression was used to fit the data to give a dose-response curve, from which the IC50 values were calculated. [formula]

[2] = system: TMD8 cells; test: Viability assay of TMD8 cells (CTG); conditions: Homo sapiens, cell viability, 120 hours
Description: (§1) The in vitro antiproliferative activity of the compounds of the present disclosure against TMD8 cells and OCI-LY10 cells was assayed using CTG (Cell Titer-Glo) luminescent cell viability assay. The specific assay methods were as follows. • a) TMD8 cells were cultured at 37 °C and 5% CO2 in complete medium [RPMI 1640 (supplier Gibco, product number 22400-089) + 10% FBS (supplier Gibco, product number 10091-148) + 1% P/S (supplier Hyclone, product number SV30010)]; OCI-LY10 cells were cultured at 37 °C and 5% CO2 in medium [IMDM (supplier Gibco, product number 31980-030) + 20% FBS (supplier Gibco, product number 10091-148) + 1% P/S (supplier Hyclone, product number SV30010) + 0.05 mM 2-Mercaptoethanol (supplier Sigma, product number M6250)]. • b) Cells in the logarithmic growth phase were harvested, and the total cell count and viable cell count were determined using a Vi-cell cell counter (supplier: BECKMAN COULTER, product number 2785198). • c) Cell density was adjusted using complete culture medium. Then, the cells were inoculated at 1500 cells per well in a 384-well cell culture plate (supplier Greiner, product number 781090). • d) The cells in the 384-well plate were cultured at 37 °C and 5% CO2 overnight. • e) A 10-fold drug solution was prepared, and then the serially diluted compound was transferred to the corresponding assay wells of the 384-well cell plate so that the final assay concentration was 1000 nM, with 9 concentrations, 3-fold dilutions, and triplicates for each drug concentration. • f) The cells in the 384-well plate with the drug added were cultured at 37 °C and 5% CO2 for another 120 hours. • g) The cells were removed from the incubator, and allowed to equilibrate at room temperature for 30 minutes. The cell state and compound solubility were observed under a microscope. • h) An equal volume of CellTiterGlo solution (supplier Promega, product number G7573) was added to each well, and the plate was incubated at room temperature for 30 minutes. • i) Then, the luminescent signal value was detected on an EnVision instrument (supplier PerkinElmer, product number 2441715).
(§2) The data were analyzed using XL-fit software (supplier: ID Business Solutions Ltd., software version: XL fit 5.5.0.5). Nonlinear regression was performed using X=Log(X), and the X values were transformed using a four-parameter Logistic model 205, from which the IC50 values were calculated. Inhibition rate % = (Max−samplevalue)/Max*100.(Max:DMSOnegativecontrol) [formula]

[3] = system: OCI-LY10 cells; test: Viability assay of OCI-LY10 cells (CTG); conditions: Homo sapiens, OCI-Ly10, 120 h, cell viability, read-out: OCl-Ly10
Description: as §1, §2

Row | SMILES | IC50 [1] | IC50 [2] | IC50 [3]
1 | COc1ccc(F)cc1C(=O)NCc1ccc(-c2ncc(-c3ccc(C)cn3)c3[nH]nc(N)c23)cc1 [Example 37, N-(4-(3-amino-7-(5-methylpyridin-2-yl)-1H-pyrazolo[4,3-c]pyridin-4-yl)benzyl)-5-fluoro-2-methoxybenzamide] | 10 to 50 nM | ≤ 5 nM | ≤ 5 nM
2 | COc1ccc(F)cc1C(=O)NCc1ccc(-c2ncc(-c3ccc(C4COC4)cn3)c3[nH]nc(N)c23)cc1 [Example 43, N-(4-(3-amino-7-(5-(oxetan-3-yl)pyridin-2-yl)-1H-pyrazolo[4,3-c]pyridin-4-yl)benzyl)-5-fluoro-2-methoxybenzamide] | 5 to 10 nM | ≤ 5 nM | ≤ 5 nM
3 | COc1ccc(F)cc1C(=O)NCc1ccc(-c2ncc(-c3cc4ncccn4n3)c3[nH]nc(N)c23)cc1 [Example 44, N-(4-(3-amino-7-(pyrazolo[1,5-a]pyrimidin-2-yl)-1H-pyrazolo[4,3-c]pyridin-4-yl)benzyl)-5-fluoro-2-methoxybenzamide] | 5 to 10 nM | ≤ 5 nM | ≤ 5 nM
4 | COc1ccc(F)cc1C(=O)NCc1ccc(-c2ncc(-c3ccn4nccc4n3)c3[nH]nc(N)c23)cc1 [Example 46, N-(4-(3-amino-7-(pyrazolo[1,5-a]pyrimidin-5-yl)-1H-pyrazolo[4,3-c]pyridin-4-yl)benzyl)-5-fluoro-2-methoxybenzamide] | > 50 nM | ≤ 5 nM | 5 to 10 nM
5 | COc1ccc(F)cc1C(=O)NCc1ccc(-c2ncc(-c3ccc(C(=O)N4CCOCC4)cn3)c3[nH]nc(N)c23)cc1 [Example 52, N-(4-(3-amino-7-(5-(morpholine-4-carbonyl)pyridin-2-yl)-1H-pyrazolo[4,3-c]pyridin-4-yl)benzyl)-5-fluoro-2-methoxybenzamide] | ≤ 5 nM | ≤ 5 nM | ≤ 5 nM
6 | COc1ccc(F)cc1C(=O)NCc1ccc(-c2ncc(-c3ccc(C(=O)N4C[C@H](C)O[C@@H](C)C4)cn3)c3[nH]nc(N)c23)cc1 [Example 53, N-(4-(3-amino-7-(5-((2S,6S)-2,6-dimethylmorpholine-4-carbonyl)pyridin-2-yl)-1H-pyrazolo[4,3-c]pyridin-4-yl)benzyl)-5-fluoro-2-methoxybenzamide] | ≤ 5 nM | ≤ 5 nM | ≤ 5 nM
7 | COCCOc1ccc(-c2cnc(-c3ccc(CNC(=O)c4cc(F)ccc4OC)cc3)c3c(N)n[nH]c23)nc1 [Example 59, N-(4-(3-amino-7-(5-(2-methoxyethoxy)pyridin-2-yl)-1H-pyrazolo[4,3-c]pyridin-4-yl)benzyl)-5-fluoro-2-methoxybenzamide] | 5 to 10 nM | ≤ 5 nM | ≤ 5 nM
8 | COc1ccc(F)cc1C(=O)NCc1ccc(-c2ncc(-c3ccc(OCCN(C)C)cn3)c3[nH]nc(N)c23)cc1 [Example 60, N-(4-(3-amino-7-(5-(2-(dimethylamino)ethoxy)pyridin-2-yl)-1H-pyrazolo[4,3-c]pyridin-4-yl)benzyl)-5-fluoro-2-methoxybenzamide] | 5 to 10 nM | ≤ 5 nM | ≤ 5 nM
9 | COc1ccc(F)cc1C(=O)NCc1ccc(-c2ncc(-c3ccc(OCCN4CCOCC4)cn3)c3[nH]nc(N)c23)cc1 [Example 61, N-(4-(3-amino-7-(5-(2-morpholinoethoxy)pyridin-2-yl)-1H-pyrazolo[4,3-c]pyridin-4-yl)benzyl)-5-fluoro-2-methoxybenzamide] | ≤ 5 nM | ≤ 5 nM | ≤ 5 nM
10 | COc1ccc(F)cc1C(=O)NCc1ccc(-c2ncc(-c3ccc(OCCN4CCCC4)cn3)c3[nH]nc(N)c23)cc1 [Example 62, N-(4-(3-amino-7-(5-(2-(pyrrolidin-1-yl)ethoxy)pyridin-2-yl)-1H-pyrazolo[4,3-c]pyridin-4-yl)benzyl)-5-fluoro-2-methoxybenzamide] | 10 to 50 nM | ≤ 5 nM | ≤ 5 nM
11 | COc1ccc(F)cc1C(=O)NCc1ccc(-c2ncc(-c3ccc(C(C)(C)O)cn3)c3[nH]nc(N)c23)cc1 [Example 65, N-(4-(3-amino-7-(5-(2-hydroxypropan-2-yl)pyridin-2-yl)-1H-pyrazolo[4,3-c]pyridin-4-yl)benzyl)-5-fluoro-2-methoxybenzamide] | ≤ 5 nM | ≤ 5 nM | ≤ 5 nM
12 | COc1ccc(F)cc1C(=O)NCc1ccc(-c2ncc(-c3ccc(CN4CCCCC4)cn3)c3[nH]nc(N)c23)cc1 [Example 66, N-(4-(3-amino-7-(5-(piperidin-1-ylmethyl)pyridin-2-yl)-1H-pyrazolo[4,3-c]pyridin-4-yl)benzyl)-5-fluoro-2-methoxybenzamide] | ≤ 5 nM | ≤ 5 nM | ≤ 5 nM
13 | COc1ccc(F)cc1C(=O)NCc1ccc(-c2ncc(-c3ccc(CN4CCOCC4)cn3)c3[nH]nc(N)c23)cc1 [Example 67, N-(4-(3-amino-7-(5-(morpholinomethyl)pyridin-2-yl)-1H-pyrazolo[4,3-c]pyridin-4-yl)benzyl)-5-fluoro-2-methoxybenzamide] | ≤ 5 nM | ≤ 5 nM | ≤ 5 nM
14 | COc1ccc(F)cc1C(=O)NCc1ccc(-c2ncc(-c3ccc(CN4CCN(C)CC4)cn3)c3[nH]nc(N)c23)cc1 [Example 68, N-(4-(3-amino-7-(5-((4-methylpiperazin-1-yl)methyl)pyridin-2-yl)-1H-pyrazolo[4,3-c]pyridin-4-yl)benzyl)-5-fluoro-2-methoxybenzamide] | ≤ 5 nM | ≤ 5 nM | ≤ 5 nM
15 | COc1ccc(F)cc1C(=O)NCc1ccc(-c2ncc(-c3cc4ccccn4n3)c3[nH]nc(N)c23)cc1 [Example 69, N-(4-(3-amino-7-(pyrazolo[1,5-a]pyridin-2-yl)-1H-pyrazolo[4,3-c]pyridin-4-yl)benzyl)-5-fluoro-2-methoxybenzamide] | 10 to 50 nM | ≤ 5 nM | ≤ 5 nM
16 | COc1ccc(F)cc1C(=O)NCc1ccc(-c2ncc(-c3cc4n(n3)CCN(C)C4)c3[nH]nc(N)c23)cc1 [Example 71, N-(4-(3-amino-7-(5-methyl-4,5,6,7-tetrahydropyrazolo[1,5-a]pyrazin-2-yl)-1H-pyrazolo[4,3-c]pyridin-4-yl)benzyl)-5-fluoro-2-methoxybenzamide] | 5 to 10 nM | ≤ 5 nM | ≤ 5 nM
17 | CCN1CCn2nc(-c3cnc(-c4ccc(CNC(=O)c5cc(F)ccc5OC)cc4)c4c(N)n[nH]c34)cc2C1 [Example 72, N-(4-(3-amino-7-(5-ethyl-4,5,6,7-tetrahydropyrazolo[1,5-a]pyrazin-2-yl)-1H-pyrazolo[4,3-c]pyridin-4-yl)benzyl)-5-fluoro-2-methoxybenzamide] | 5 to 10 nM | ≤ 5 nM | ≤ 5 nM
18 | COc1ccc(F)cc1C(=O)NCc1ccc(-c2ncc(-c3ccc(N4CCN(C)C[C@@H]4C)cn3)c3[nH]nc(N)c23)cc1 [Example 74, (S)-N-(-4-(3-amino-7-(5-(2,4-dimethylpiperazin-1-yl)pyridin-2-yl) 1H-pyrazolo[4,3-c]pyridin-4-yl)benzyl)-5-fluoro-2-methoxybenzamide] | ≤ 5 nM | ≤ 5 nM | ≤ 5 nM
